Where two headings read alike, the source gives them in different places.
How the values were obtained:
Test in all cases: sirtuin deacetylase inhibition assay, % inhibition at […] ([…] at […])
Assay type in all cases: biochemical
SIRT1 [1] = molecular target: T1, SIRT1 (Homo sapiens, UniProt Q96EB6)
T1 sequence (Q96EB6 2-747): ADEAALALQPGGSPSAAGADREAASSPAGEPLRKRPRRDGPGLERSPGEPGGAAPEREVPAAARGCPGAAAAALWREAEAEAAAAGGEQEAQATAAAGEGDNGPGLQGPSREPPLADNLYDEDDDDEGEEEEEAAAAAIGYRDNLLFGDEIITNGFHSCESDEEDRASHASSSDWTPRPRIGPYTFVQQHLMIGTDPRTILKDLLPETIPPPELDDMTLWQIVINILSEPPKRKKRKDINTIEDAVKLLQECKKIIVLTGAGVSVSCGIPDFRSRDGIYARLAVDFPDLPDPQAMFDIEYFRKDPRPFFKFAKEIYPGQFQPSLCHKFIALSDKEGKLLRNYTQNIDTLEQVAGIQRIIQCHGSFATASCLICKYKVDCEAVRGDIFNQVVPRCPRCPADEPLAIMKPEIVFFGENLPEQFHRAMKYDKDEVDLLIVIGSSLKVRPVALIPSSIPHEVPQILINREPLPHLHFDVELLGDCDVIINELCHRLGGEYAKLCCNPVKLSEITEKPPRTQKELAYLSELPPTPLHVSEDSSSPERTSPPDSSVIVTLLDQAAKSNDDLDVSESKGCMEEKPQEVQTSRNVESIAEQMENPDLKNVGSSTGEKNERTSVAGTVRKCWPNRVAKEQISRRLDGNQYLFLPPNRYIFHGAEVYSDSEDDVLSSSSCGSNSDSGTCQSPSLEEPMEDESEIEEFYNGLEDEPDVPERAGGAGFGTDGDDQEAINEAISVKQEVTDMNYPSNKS

SIRT2 [2] = molecular target: T2, SIRT2 (Homo sapiens, UniProt Q8IXJ6)
T2 sequence (Q8IXJ6 2-389): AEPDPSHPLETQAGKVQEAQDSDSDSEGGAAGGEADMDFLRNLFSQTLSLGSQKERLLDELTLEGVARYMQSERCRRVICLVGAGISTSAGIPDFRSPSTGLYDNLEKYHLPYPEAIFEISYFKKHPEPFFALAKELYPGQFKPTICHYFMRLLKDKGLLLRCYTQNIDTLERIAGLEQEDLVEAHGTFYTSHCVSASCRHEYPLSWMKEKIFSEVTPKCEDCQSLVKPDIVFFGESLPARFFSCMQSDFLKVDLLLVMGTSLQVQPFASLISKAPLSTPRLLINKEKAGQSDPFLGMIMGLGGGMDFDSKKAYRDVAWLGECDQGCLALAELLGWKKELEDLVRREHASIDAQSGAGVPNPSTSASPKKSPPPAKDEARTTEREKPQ

SIRT1 [3] = molecular target: T1, SIRT1; remark: listed apart in the source
SIRT2 [4] = molecular target: T2, SIRT2; remark: listed apart in the source

O=C(/C=C/C=C/c1ccc2c(c1)OCO2)N/N=C/c1ccc(O)cc1O [5b, (2E,4E)-5-(Benzo[d][1,3]dioxol-5-yl)-N′-((E)-2,4-dihydroxybenzylidene)penta-2,4-dienehydrazide]
inhibition at 50 µM (SIRT1 [1]): 45 ± 3%

CN(C)c1ccc(C=NNC(=O)/C=C/C=C/c2ccc3c(c2)OCO3)cc1 (mixture of isomers) [5d, (2E,4E)-5-(Benzo[d][1,3]dioxol-5-yl)-N′-((E/Z)-4-(dimethylamino)-benzylidene)penta-2,4-dienehydrazide]
inhibition at 50 µM (SIRT2 [2]): 70 ± 3% | inhibition at 50 µM (SIRT1 [3]): 48 ± 3%

O=C(/C=C/C=C/c1ccc2c(c1)OCO2)NN=Cc1ccc(O)cc1 [5a, (2E,4E)-5-(Benzo[d][1,3]dioxol-5-yl)-N′-((E,Z)-4-hydroxybenzylidene)penta-2,4-dienehydrazide]
inhibition at 50 µM (SIRT2 [4]): 72 ± 3%

Source: PMC9037111, “Structure-based design, synthesis, and biological evaluation of novel piperine–resveratrol hybrids as antiproliferative agents targeting SIRT-2” (RSC Advances, 2021)
